From article PMC7226106, “Population Pharmacokinetics/Pharmacodynamics of Dabrafenib Plus Trametinib in Patients with BRAF-Mutated Metastatic Melanoma” (Cancers, 2020)
Like-named read-outs stand apart in the source and are kept apart here.

What was measured:
[1] = Model-estimated systemic exposure (AUC) in BRAF^V600-mutated MM patients treated with CombiDT; conditions: for AUC: human, plasma, oral
Procedure: (§1) Pharmacokinetic/pharmacodynamic analysis was conducted in BRAF^V600-mutated MM patients concomitantly treated with CombiDT. Regarding safety, the onset of DLT was considered as the clinical endpoint. A DLT was defined as any toxicity leading to dose reduction or temporary or permanent discontinuation of treatment. Regarding survival, the primary end point was progression free survival (PFS), the time from DAB and TRA treatment initiation to documented progression event (either clinical or radiological progression) or death from any cause. The secondary end-point was overall survival (OS), defined as the time from DAB and TRA treatment initiation to death from any cause. Radiographic evidence of progression was defined according to modified Response Evaluation Criteria in Solid Tumor (RECIST) v1.1 [41].
Systemic exposures to DAB, OHD, and TRA (AUCDAB, AUCOHD, and AUCTRA, respectively) were calculated with classic equations, composite DAB and OHD AUC (AUCDAB+OHD) as previously explained and AUCOHD/DAB as the ratio of AUCOHD over AUCDAB. Univariate Fisher and Wilcoxon models were performed to identify which parameters could contribute to the onset of DLT. The following variables were tested: sex, age at treatment initiation, BMI, Eastern Cooperative Oncology Group Performance Status (ECOG PS: grade 0-1 vs ≥2), lactate dehydrogenase (LDH) level (<1.5N vs. ≥1.5N), AUCDAB, AUDOHD, AUCDAB+OHD, and AUCTRA.
Multivariate Cox models according to a stepwise procedure were tested including all variables which were significant at 5% level in the univariate analyses. All the pharmacokinetic/pharmacodynamic analyses were performed using R program v3.6.1 with RStudio v1.1.383 (http://www.r-project.org).

[2] = parameters: method as in earlier work; conditions: preclinical data; cited from earlier work
[3] = parameters: method as in PMID 24408395; conditions: fixed in base and final model and bootstrap; cited from earlier work
[4] = Population pharmacokinetic model of dabrafenib/hydroxy-dabrafenib (NONMEM) from plasma concentrations; assay type: in vivo, human (patients); conditions: for Vd/F: both sexes, human, plasma, oral, 150 mg twice daily, read-out: V2/F, apparent central volume of distribution of DAB
Excerpt: Seventy-three outpatients treated with DAB were enrolled from July 2015 to June 2017 in this observational multicentric study including three hospitals of the Assistance Publique—Hôpitaux de Paris (Cochin, Henri Mondor, and Avicenne). To be eligible, patients needed to meet the following criteria: a minimal age of 18 years, metastatic BRAF^V600-mutated solid tumors, treatment with DAB or CombiDT with at least one available DAB concentration measurement.
DAB, dabrafenib-d9 (internal standard, IS), and TRA were purchased from LGC Standards (Molsheim, France). A custom synthesis was developed by Shanghai Medicilon (Shanghai, China) for OHD. The plasma concentrations were assayed using a validated high-performance liquid chromatography-tandem mass spectrometry (HPLC-MS/MS) (ATSQ Quantum Ultra®mass spectrometer, ThermoFisher, Les Ulis, France). Chromatographic separation was performed on Accucore® C18 (2.1 × 50 mm; 2.6 µm) analytical column (ThermoFisher Scientific, Les Ulis, France) associated with a guard column packed with the same bonded phase. Two hundred microliters (µL) aliquot of plasma (calibration standard, internal quality control or patient sample) was mixed with 20 µL of IS solution. Then 600 µL acetonitrile with 1% (v/v) formic acid was added. Samples were mixed and centrifuged, and the supernatant was evaporated and recovered with 200 µL of mobile phase: water/methanol (70:30%, v/v) with formic acid (0.1% v/v). Ten microliters of this mixture were injected into the HPLC-MS/MS system. The calibration standards ranged from 10 to 2000 ng/mL for DAB and OHD and from 5 to 50 ng/mL for TRA.
Blood samples were collected in heparinized tubes during the treatment course, and the exact sample time was recorded. Plasma was separated by centrifugation (3000 rpm, 5 min), and stored at −20 °C until analysis.
The non-linear mixed effects modeling program NONMEM v7.4.1 [34] with the Perl-Speaks NONMEM (PsN) Toolkit v4.8.0 [35] was used to build DAB/OHD and TRA models. Pirana v2.9.2 was used to assist in model development. […] Molar units were used for DAB/OHD analyses. Plasma samples with concentrations below the lower limit of quantification of the assay, non-reliable time information about blood sampling, or without dose information were excluded from the analysis.
A stepwise strategy was used to identify the base models that best fitted DAB/OHD and TRA pharmacokinetic data. Different structural models such as one or two compartments, with linear absorption with or without lag time, were compared. DAB and OHD were modeled simultaneously testing multi-compartment models for both compounds. We hypothesized that DAB was cleared by complete oxidation to OHD, since it is not eliminated as unchanged molecule in urine and accounts for less than 22% in feces. Moreover, the first-order absorption rate constant (ka) of DAB was fixed to 1.8 h^−1 according to a previously published value to allow an adequate estimate of all pharmacokinetic parameters. Since DAB and TRA are administered orally, the pharmacokinetic parameters represent apparent values. Exponential errors following a log-normal distribution were assumed for the description of IIV of all the pharmacokinetic parameters. Inter-occasion variability (IOV) was tested in both DAB/OHD and TRA models to assess differences in individual parameters across study occasions. Additive, proportional, and mixed error models were compared to depict the residual unexplained variability (RUV) for both drugs and metabolite. The correlation between DAB and OHD data was tested using the L2 item in NONMEM. […]

[5] = cited from earlier work
[6] = test system: BRAF^V600-mutated MM patients; experiment: Safety: adverse events and dose-limiting toxicities (DLT) under CombiDT
Procedure: Patients initiated DAB at the recommended daily dose of 150 mg twice daily. In patients treated with CombiDT, TRA was started at 2 mg once daily. Reduced starting doses were allowed at physician discretion based on comorbidities and patients’ general condition. All AE were graded using the National Cancer Institute Common Toxicity Criteria v4.0. DAB treatment was continued until disease progression, unacceptable toxicity, or unfitness to receive it.

[7] = test system: BRAF^V600-mutated metastatic melanoma; experiment: Survival (PFS, OS) and Cox exposure-survival analysis under CombiDT; assay type: in vivo, human (patients)
Procedure: as §1
Multivariate Cox models according to a stepwise procedure were tested including all variables which were significant at 5% level in the univariate analyses.

[8] = bootstrap median (n = 500 samples)
[9] = reference models built upon clinical trial data

CC(C)(C)c1nc(-c2cccc(NS(=O)(=O)c3c(F)cccc3F)c2F)c(-c2ccnc(N)n2)s1 [DAB, Dabrafenib]
AUC ([1]; AUC, median (range), patients with DAB-related DLT (n = 12), last AUC before onset of DLT): 9620 ng·h/mL | AUC ([1]; AUC, median (range), patients without DAB-related DLT (n = 40), average AUC over treatment course): 7480 ng·h/mL | AUC ([1]; mean AUCDAB, after DAB dose reduction, n = 8): 5040 ng·h/mL | AUC ([1]; mean AUCDAB, before DAB dose reduction, n = 8): 9010 ng·h/mL | AUC ([1]; median AUCM3 (mean AUC during the first three months of treatment), 30 MM patients of the exposure-survival analysis): 7720 ng·h/mL | decrease in mean AUCDAB after DAB dose reduction ([1]; n = 8): 1.8 fold | passage of the intact blood brain barrier [2]: may cross intact blood brain barrier | ka, first-order absorption rate constant [3]: 1.8 fixed 1/h | difference in pharmacokinetics ([4]; DAB monotherapy vs. combiDT (ΔOFV = −2.9, p > 0.05)): did not differ | IIV CL/F, interindividual variability (coefficient of variation) ([4]; base DAB/OHD model): 21.9% | IIV V2/F, interindividual variability (coefficient of variation) ([4]; base DAB/OHD model): 43.0% | IOV, inter-occasion variability on CL/F (coefficient of variation) ([4]; base DAB/OHD model): 17.2% | RUV of DAB, residual unexplained variability (proportional) ([4]; base DAB/OHD model): 49.2% | Tlag, lag time ([4]; base DAB/OHD model): 0.50 h | CL/F, apparent clearance of DAB ([4]; base DAB/OHD model, n = 73, steady state): 17.7 L/h | CL/F, apparent clearance of DAB [4, 8]: 19.2 L/h | IIV CL/F, interindividual variability (coefficient of variation) [4, 8]: 14.4% | IIV V2/F, interindividual variability (coefficient of variation) [4, 8]: 69.4% | IOV, inter-occasion variability on CL/F (coefficient of variation) [4, 8]: 17.0% | RUV of DAB, residual unexplained variability (proportional) [4, 8]: 48.2% | Tlag, lag time [4, 8]: 0.499 h | Vd/F ([4]; base DAB/OHD model): 39.5 L | Vd/F [4, 8]: 38.3 L | Vd/F ([4]; final DAB/OHD model): 39.1 L | reduction of CL/F ([4]; comparing 20-year-old to 90-year-old patients): 55% | difference in pharmacokinetics ([4]; concomitant proton-pump inhibitor (PPI) intake (ΔOFV = −3.5, p > 0.05)): did not differ | CL/F, apparent clearance of DAB ([4]; final DAB/OHD model): 19.3 L/h | IIV CL/F, interindividual variability (coefficient of variation) ([4]; final DAB/OHD model): 16.0% | IIV V2/F, interindividual variability (coefficient of variation) ([4]; final DAB/OHD model): 50.8% | IOV, inter-occasion variability on CL/F (coefficient of variation) ([4]; final DAB/OHD model): 17.4% | RUV of DAB, residual unexplained variability (proportional) ([4]; final DAB/OHD model): 48.7% | Tlag, lag time ([4]; final DAB/OHD model): 0.499 h | base model variance of clearance explained by covariates (sex, age) ([4]; in vivo): 47% | inter-occasion variability (IOV) on CL/F ([4]; model building): 17% | reduction of CL/F ([4]; women vs. men): 17% | unchanged molecule in feces [5]: less than 22% | first-order absorption rate constant (ka) ([5]; previously published value, fixed in the model): 1.8 h⁻¹ | CL/F [5, 9]: 17.0 L/h | Q/F [5, 9]: 3.30 L/h | lag time [5, 9]: 0.482 h | patients in whom the drug dose was reduced ([6]; 52 MM patients): 15% | patients in whom the drug was discontinued permanently ([6]; 52 MM patients): 8% | patients who experienced a drug-related DLT ([6]; 52 MM patients): 23% | median time to onset of drug-related DLT ([6]; human, in vivo): 110 days | patients who discontinued DAB treatment because of cerebral progression ([7]; present cohort): 72% | Risk of Death, HR (CI95%) for AUCM3 ([7]; univariate Cox model, n = 30): 1.02 (0.75–1.39) | Risk of Progression, HR (CI95%) for AUCM3 ([7]; univariate Cox model, n = 30): 1.04 (0.82–1.32)
